Experimental data: PMC6332026, “Synthesis and Pharmacochemistry of New Pleiotropic Pyrrolyl Derivatives” (Molecules, 2015)
One block for each molecule: values may come before it.

Columns and labels:
[1] = system: carrageenan-induced rat paw edema; design: method as in PMID 7714750; conditions: dose 0.44 mmol/kg; cited from earlier work
trypsin = biological target: T1, trypsin (Bos taurus, UniProt P00760); assay: Inhibition of the proteolytic activity of trypsin; assay type: biochemical; conditions: bovine albumin substrate, pH 7.6; read-out: TP IC50 (inhibition of trypsin)
T1 construct: purchased Sigma Chemical, Co. (St. Louis, MO, USA); host or cells: bovine pancreas
T1 sequence (P00760 24-246): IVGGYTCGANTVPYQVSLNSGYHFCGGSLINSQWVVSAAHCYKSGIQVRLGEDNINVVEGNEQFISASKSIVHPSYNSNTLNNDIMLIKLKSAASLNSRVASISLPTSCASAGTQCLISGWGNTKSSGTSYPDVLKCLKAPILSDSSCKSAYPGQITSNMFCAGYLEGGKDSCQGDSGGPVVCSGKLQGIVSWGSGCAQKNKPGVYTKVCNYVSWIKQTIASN
Text: Trypsin is an enzyme with an active role in inflammation. Thus, we studied the anti-proteolytic ability of the pyrrole derivatives, using salicylic acid as a reference compound. […] Comparing Compounds 2iv and 2v, the insertion of an electron-acceptor substituent (Cl) on the phenyl ring (substituent Ar^2) and the simultaneous increase of the volume of substituent Ar^2 (expressed as molar refractivity) led to an enhancement of the anti-proteolytic activity.
Carrageenan, type K, was commercially available. Cycloxygenase-2 (COX-2) and interleukin-6 (IL-6) EIA Kit, Item No. 583371 were purchased from Cayman. Trolox was obtained from Aldrich Chemical Co. (Milwaukee, WI, USA). All starting materials were obtained from commercial sources, and they were used without further purification.
The tested compounds (concentrations varying from 10 μΜ–100 μΜ in DMSO) were dissolved in a phosphate buffer (0.1 M K2HPO4–NaH2PO4·2H2O, pH = 7.6), and 0.2 mL of trypsin 0.075 mg/mL were added. The mixture was incubated at room temperature for 20 min, and then, 1 mL of bovine albumin (6 g/100 mL) was added. The mixture was incubated at 37 °C for 30 min. The reaction was stopped with the addition of 1 mL of trichloroacetic acid (5% w/w) Separation of the phases followed, with measurement of the supernatants at 280 nm at room temperature. IC50 values were determined.

soybean lipoxygenase = biological target: T2, soybean lipoxygenase (Glycine max, UniProt P08170); assay: Inhibition of soybean lipoxygenase (UV absorbance-based enzyme assay); assay type: biochemical; conditions: pH 9.00, read-out: LOX IC50
T2 construct: purchased Sigma Chemical, Co. (St. Louis, MO, USA)
T2 sequence (P08170 1-839): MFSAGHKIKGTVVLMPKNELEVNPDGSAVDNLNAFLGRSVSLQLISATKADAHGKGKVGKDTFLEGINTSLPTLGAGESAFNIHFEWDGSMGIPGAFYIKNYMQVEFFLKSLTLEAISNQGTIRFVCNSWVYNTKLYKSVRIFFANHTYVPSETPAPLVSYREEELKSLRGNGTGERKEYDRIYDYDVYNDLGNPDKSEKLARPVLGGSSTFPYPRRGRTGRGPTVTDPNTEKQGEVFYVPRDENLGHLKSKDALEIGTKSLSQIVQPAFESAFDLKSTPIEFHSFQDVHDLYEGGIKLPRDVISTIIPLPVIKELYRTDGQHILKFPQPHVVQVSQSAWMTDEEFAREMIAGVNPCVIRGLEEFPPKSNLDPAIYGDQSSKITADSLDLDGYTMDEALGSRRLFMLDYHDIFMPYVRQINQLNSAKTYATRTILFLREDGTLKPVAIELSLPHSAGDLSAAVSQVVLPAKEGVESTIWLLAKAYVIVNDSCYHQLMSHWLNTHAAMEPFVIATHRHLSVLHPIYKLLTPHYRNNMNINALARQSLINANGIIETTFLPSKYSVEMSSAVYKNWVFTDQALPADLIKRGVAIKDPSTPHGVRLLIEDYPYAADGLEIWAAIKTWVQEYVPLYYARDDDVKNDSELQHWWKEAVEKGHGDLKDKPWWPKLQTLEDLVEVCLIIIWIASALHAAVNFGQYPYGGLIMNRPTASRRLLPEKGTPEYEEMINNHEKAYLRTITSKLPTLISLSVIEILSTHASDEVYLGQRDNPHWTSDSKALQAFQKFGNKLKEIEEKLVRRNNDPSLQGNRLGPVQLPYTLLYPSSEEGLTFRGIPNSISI
Description: Lipoxygenase catalyzes the first two steps in the metabolism of arachidonic acid to leukotrienes. LTB4 generation is important in the pathogenesis of neutrophil-mediated inflammatory diseases with a marked relation to the severity of cardiovascular diseases, asthma and cancer. We evaluated the synthesized pyrroles for their ability to inhibit soybean LOX by the UV absorbance-based enzyme assay. […] The inhibition of COX-2, as a peroxidase, was determined by a colorimetric assay with the oxidation of N,N,N′,N′-tetramethyl-p-phenylenediamine (TMPD).
The tested compounds were dissolved in DMSO, and the final concentration was 100 μΜ. The compounds were incubated at room temperature with sodium linoleate as a substrate (0.1 mL) in a buffer solution of Tris:HCl (pH 9.00) and 0.2 mL of a solution of soybean lipoxygenase.

[2] = system: carrageenan-induced rat paw edema; assay: Inhibition of rat paw edema induced by carrageenan; assay type: in vivo, Fischer 344 rats; conditions: Rattus norvegicus, ip; 0.01 mmol/kg body weight, intraperitoneally, 3.5 h; read-out: CPE % inhibition of rat paw edema induced by carrageenan
Description: The pyrrolyl derivatives, as well as their precursor chalcones were tested in vivo for the inhibition of rat paw edema induced by carrageenan. […] […]. For Compounds 2i, 2iii, 2iv and 2v, we determined their ED50 values. […]. The finding supports the primary idea of this design.
Edema was induced in the right hind paw of Fischer 344 rats (150–200 g). In the study, both males and females were included, with the exemption of pregnant females. The animals, which have been bred in our laboratory, were housed under standard conditions and received a diet of commercial food pellets and water ad libitum during maintenance. One hour before the onset of the experiment, food and water were removed. The tested compounds (dose 0.01 mmol/kg body weight) were diluted in water with a few drops of Tween 80, and they were administered intraperitoneally simultaneously with the intradermal injection of 0.1 mL 2% of carrageenan in water. The animals were euthanatized 3.5 h after the carrageenan administration. The difference between the weight of injected and uninjected paws was calculated for each animal and was compared to control animals, which were treated with water. Indomethacin was used as a reference compound in 0.01 mmol/kg. The results were expressed as the percent inhibition of the edema (CPE %).

[3] = Interaction with the stable free radical DPPH (reducing activity); conditions: DPPH 50 μM
Description: 2,2-Diphenyl-1-picrylhydrazyl (DPPH) is a lipophilic, free, stable radical, which absorbs at 517 nm (violet color). Upon reduction, decolorization is observed that is stoichiometric to the number of received electrons and is representative of the antioxidant ability of compounds. […] This interaction, which indicates their radical scavenging ability in an iron-free system, was measured at 100 and 1000 μM after 20 and 60 min, whereas the final concentration of DPPH was stable at 50 μΜ.
[…] The absorbance was measured at 517 nm after 20 and 60 min at room temperature.

SMILES: O=C(c1ccccc1)c1ccc[nH]1 [2-benzoylpyrrole]
inhibition of carrageenan-induced rat paw edema [1]: 34%

SMILES: O=C(c1ccccc1)c1cc[nH]c1 [3-benzoylpyrrole]
inhibition of carrageenan-induced rat paw edema [1]: 43%

IC50 (trypsin): 100 µM
SMILES: O=C(O)c1ccccc1O [Salicylic acid, reference compound]

IC50 (soybean lipoxygenase): 190 µM
SMILES: Cc1ccc(C(=O)c2ccc(CC(=O)O)n2C)cc1 [Tolmetin, reference compound]
inhibition in vivo at 10 µmol/kg [2]: 76%
RA % (interaction with DPPH) ([3]; 100 μM compound, 20 min): 3%
RA % (interaction with DPPH) ([3]; 100 μM compound, 60 min): 3%
RA % (interaction with DPPH) ([3]; 1000 μM compound, 20 min): 4%
RA % (interaction with DPPH) ([3]; 1000 μM compound, 60 min): 9%
